Reference: patent US12077503B2, “Substituted cyclic amides and their use as herbicides” (FMC CORPORATION, priority 2015, dated 2024)

Tests used:
Format in all cases: in vivo
[1] = test system: barnyardgrass (Echinochloa crus-galli); experiment: Test G Pre-Emergence Protocol; conditions: Echinochloa crus-galli, pre-emergence, 312 h, evaluated after 13 days; for pest or weed control at 15.625 g/ha: 15.625 g ai/ha, read-out: Barnyard grass damage rating (100=total damage to plant; 0=no damage to plant); for pest or weed control at 62.5 g/ha: 62.5 g ai/ha, 100=total damage to plant, 0=no damage to plant, read-out: plant damage rating, Barnyardgrass; for pest or weed control at 250 g/ha: 250 g ai/ha, read-out: Barnyardgrass damage rating (100=total damage to plant; 0=no damage to plant)
Summary of the method: (§1)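 Herbicidal effect was rated 13 days post-application on a scale where 100 equals total damage. Spraying took place the day after sowing, using 15.625, 62.5 or 250 g/ha of compound in a 50:50 acetone/water solution with 0.5% Tween 20.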

[2] = test system: corn (Zea mays); experiment: Test G Pre-Emergence Protocol; conditions: Zea mays, pre-emergence, 312 h, evaluated after 13 days; for plant injury at 15.625 g/ha: 15.625 g ai/ha; for plant injury at 15.625 g/ha / plant injury at 250 g/ha: read-out: Corn damage rating (100=total damage to plant; 0=no damage to plant); for plant injury at 62.5 g/ha: 62.5 g ai/ha, 100=total damage to plant, 0=no damage to plant, read-out: plant damage rating, Corn; for plant injury at 250 g/ha: 250 g ai/ha
Summary of the method: as §1

[3] = test system: giant foxtail (Setaria faberi); experiment: Test G Pre-Emergence Protocol; conditions: Setaria faberi, pre-emergence, 312 h, evaluated after 13 days; for pest or weed control at 15.625 g/ha: 15.625 g ai/ha; for pest or weed control at 15.625 g/ha / pest or weed control at 250 g/ha: read-out: Foxtail, Giant damage rating (100=total damage to plant; 0=no damage to plant); for pest or weed control at 62.5 g/ha: 62.5 g ai/ha, 100=total damage to plant, 0=no damage to plant, read-out: plant damage rating, Foxtail, Giant; for pest or weed control at 250 g/ha: 250 g ai/ha
Summary of the method: as §1

[4] = test system: ivy-leaved morning glory (Ipomoea hederacea); experiment: Test G Pre-Emergence Protocol; conditions: Ipomoea, pre-emergence, 312 h, evaluated after 13 days; for pest or weed control at 15.625 g/ha: 15.625 g ai/ha, read-out: Morning-glory, Ivy-leaved damage rating (100=total damage to plant; 0=no damage to plant); for pest or weed control at 62.5 g/ha: 62.5 g ai/ha, 100=total damage to plant, 0=no damage to plant, read-out: plant damage rating, Morningglory, Ivy-leaved; for pest or weed control at 250 g/ha: 250 g ai/ha, read-out: Morningglory, Ivy-leaved damage rating (100=total damage to plant; 0=no damage to plant)
Summary of the method: as §1

[5] = test system: redroot pigweed (Amaranthus retroflexus); experiment: Test G Pre-Emergence Protocol; conditions: Amaranthus retroflexus, pre-emergence, 312 h, evaluated after 13 days; for pest or weed control at 15.625 g/ha: 15.625 g ai/ha; for pest or weed control at 15.625 g/ha / pest or weed control at 250 g/ha: read-out: Pigweed, Redroot damage rating (100=total damage to plant; 0=no damage to plant); for pest or weed control at 62.5 g/ha: 62.5 g ai/ha, 100=total damage to plant, 0=no damage to plant, read-out: plant damage rating, Pigweed, Redroot; for pest or weed control at 250 g/ha: 250 g ai/ha
Summary of the method: as §1

[6] = test system: velvetleaf (Abutilon theophrasti); experiment: Test G Pre-Emergence Protocol; conditions: Abutilon theophrasti, pre-emergence, 312 h, evaluated after 13 days; for pest or weed control at 15.625 g/ha: 15.625 g ai/ha; for pest or weed control at 15.625 g/ha / pest or weed control at 250 g/ha: read-out: Velvetleaf damage rating (100=total damage to plant; 0=no damage to plant); for pest or weed control at 62.5 g/ha: 62.5 g ai/ha, 100=total damage to plant, 0=no damage to plant, read-out: plant damage rating, Velvetleaf; for pest or weed control at 250 g/ha: 250 g ai/ha
Summary of the method: as §1

[7] = test system: barnyardgrass (Echinochloa crus-galli); experiment: Test G Post-Emergence Protocol; conditions: Echinochloa crus-galli, post-emergence, 312 h; for pest or weed control at 15.625 g/ha: 15.625 g ai/ha, evaluated after 13 days (100=total damage to plant; 0=no damage to plant), read-out: Barnyardgrass damage rating; for pest or weed control at 62.5 g/ha: 62.5 g ai/ha, read-out: Barnyardgrass damage rating (100=total damage to plant; 0=no damage to plant); for pest or weed control at 62.5 g/ha / pest or weed control at 250 g/ha: evaluated after 13 days; for pest or weed control at 250 g/ha: 250 g ai/ha, read-out: damage to plant, Barnyardgrass (100=total damage to plant; 0=no damage to plant)
Summary of the method: (§2)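 Values are percent visual injury at 13 days after treatment (0 none, 100 total). Treatment was a post-emergence spray at 15.625, 62.5 or 250 g/ha on 8-day-old pot plants kept at 24/16 °C.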

[8] = test system: corn (Zea mays); experiment: Test G Post-Emergence Protocol; conditions: Zea mays, post-emergence, 312 h; for plant injury at 15.625 g/ha: 15.625 g ai/ha, evaluated after 13 days (100=total damage to plant; 0=no damage to plant), read-out: Corn damage rating; for plant injury at 62.5 g/ha: 62.5 g ai/ha, read-out: Corn damage rating (100=total damage to plant; 0=no damage to plant); for plant injury at 62.5 g/ha / plant injury at 250 g/ha: evaluated after 13 days; for plant injury at 250 g/ha: 250 g ai/ha, read-out: damage to plant, Corn (100=total damage to plant; 0=no damage to plant)
Summary of the method: as §2

[9] = test system: giant foxtail (Setaria faberi); experiment: Test G Post-Emergence Protocol; conditions: Setaria faberi, post-emergence, 312 h; for pest or weed control at 15.625 g/ha: 15.625 g ai/ha, evaluated after 13 days (100=total damage to plant; 0=no damage to plant), read-out: Foxtail, Giant damage rating; for pest or weed control at 62.5 g/ha: 62.5 g ai/ha, read-out: Foxtail, Giant damage rating (100=total damage to plant; 0=no damage to plant); for pest or weed control at 62.5 g/ha / pest or weed control at 250 g/ha: evaluated after 13 days; for pest or weed control at 250 g/ha: 250 g ai/ha, read-out: damage to plant, Foxtail, Giant (100=total damage to plant; 0=no damage to plant)
Summary of the method: as §2

[10] = test system: ivy-leaved morning glory (Ipomoea hederacea); experiment: Test G Post-Emergence Protocol; conditions: Ipomoea, post-emergence, 312 h; for pest or weed control at 15.625 g/ha: 15.625 g ai/ha, evaluated after 13 days (100=total damage to plant; 0=no damage to plant), read-out: Morningglory, Ivy-leaved damage rating; for pest or weed control at 62.5 g/ha: 62.5 g ai/ha, read-out: Morningglory, Ivy-leaved damage rating (100=total damage to plant; 0=no damage to plant); for pest or weed control at 62.5 g/ha / pest or weed control at 250 g/ha: evaluated after 13 days; for pest or weed control at 250 g/ha: 250 g ai/ha, read-out: damage to plant, Morningglory, Ivy-leaved (100=total damage to plant; 0=no damage to plant)
Summary of the method: as §2

[11] = test system: redroot pigweed (Amaranthus retroflexus); experiment: Test G Post-Emergence Protocol; conditions: Amaranthus retroflexus, post-emergence, 312 h; for pest or weed control at 15.625 g/ha: 15.625 g ai/ha, evaluated after 13 days (100=total damage to plant; 0=no damage to plant), read-out: Pigweed, Redroot damage rating; for pest or weed control at 62.5 g/ha: 62.5 g ai/ha, read-out: Pigweed, Redroot damage rating (100=total damage to plant; 0=no damage to plant); for pest or weed control at 62.5 g/ha / pest or weed control at 250 g/ha: evaluated after 13 days; for pest or weed control at 250 g/ha: 250 g ai/ha, read-out: damage to plant, Pigweed, Redroot (100=total damage to plant; 0=no damage to plant)
Summary of the method: as §2

[12] = test system: velvetleaf (Abutilon theophrasti); experiment: Test G Post-Emergence Protocol; conditions: Abutilon theophrasti, post-emergence, 312 h; for pest or weed control at 15.625 g/ha: 15.625 g ai/ha, evaluated after 13 days (100=total damage to plant; 0=no damage to plant), read-out: Velvetleaf damage rating; for pest or weed control at 62.5 g/ha: 62.5 g ai/ha, read-out: Velvetleaf damage rating (100=total damage to plant; 0=no damage to plant); for pest or weed control at 62.5 g/ha / pest or weed control at 250 g/ha: evaluated after 13 days; for pest or weed control at 250 g/ha: 250 g ai/ha, read-out: damage to plant, Velvetleaf (100=total damage to plant; 0=no damage to plant)
Summary of the method: as §2

| Compound | pest or weed control at 15.625 g/ha [1] [%] | pest or weed control at 62.5 g/ha [1] [%] | pest or weed control at 250 g/ha [1] [%] | plant injury at 15.625 g/ha [2] [%] | plant injury at 62.5 g/ha [2] [%] | plant injury at 250 g/ha [2] [%] | pest or weed control at 15.625 g/ha [3] [%] | pest or weed control at 62.5 g/ha [3] [%] | pest or weed control at 250 g/ha [3] [%] | pest or weed control at 15.625 g/ha [4] [%] | pest or weed control at 62.5 g/ha [4] [%] | pest or weed control at 250 g/ha [4] [%] | pest or weed control at 15.625 g/ha [5] [%] | pest or weed control at 62.5 g/ha [5] [%] | pest or weed control at 250 g/ha [5] [%] | pest or weed control at 15.625 g/ha [6] [%] | pest or weed control at 62.5 g/ha [6] [%] | pest or weed control at 250 g/ha [6] [%] | pest or weed control at 15.625 g/ha [7] [%] | pest or weed control at 62.5 g/ha [7] [%] | further results |
| --- | --- | --- | --- | --- | --- | --- | --- | --- | --- | --- | --- | --- | --- | --- | --- | --- | --- | --- | --- | --- | --- |
| C=Cc1ccc([C@H]2CN(C)C(=O)[C@@H]2C(=O)Nc2ccccc2F)cc1 (racemic) [Compound 1457] | 0 | 0 | 50 | 0 | 0 | 0 | 0 | 20 | 90 | 0 | 0 | 0 | 0 | 0 | 0 | 0 | 0 | 0 | 0 | 10 | pest or weed control at 250 g/ha [7]: 10%; plant injury at 15.625 g/ha [8]: 0%; plant injury at 62.5 g/ha [8]: 0%; plant injury at 250 g/ha [8]: 10%; pest or weed control at 15.625 g/ha [9]: 0%; pest or weed control at 62.5 g/ha [9]: 20%; pest or weed control at 250 g/ha [9]: 50%; pest or weed control at 15.625 g/ha [10]: 0%; pest or weed control at 62.5 g/ha [10]: 0%; pest or weed control at 250 g/ha [10]: 20%; pest or weed control at 15.625 g/ha [11]: 0%; pest or weed control at 62.5 g/ha [11]: 0%; pest or weed control at 250 g/ha [11]: 0%; pest or weed control at 15.625 g/ha [12]: 0%; pest or weed control at 62.5 g/ha [12]: 0%; pest or weed control at 250 g/ha [12]: 0% |
| CN1C[C@@H](c2ccc(C(F)(F)F)nc2)[C@H](C(=O)Nc2cccc(F)c2F)C1=O (racemic) [Compound 1458] | 20 | 80 | 80 | 0 | 0 | 50 | 20 | 80 | 80 | 0 | 0 | 20 | 0 | 0 | 70 | 0 | 0 | 30 | 10 | 20 | pest or weed control at 250 g/ha [7]: 20%; plant injury at 15.625 g/ha [8]: 10%; plant injury at 62.5 g/ha [8]: 10%; plant injury at 250 g/ha [8]: 10%; pest or weed control at 15.625 g/ha [9]: 30%; pest or weed control at 62.5 g/ha [9]: 50%; pest or weed control at 250 g/ha [9]: 60%; pest or weed control at 15.625 g/ha [10]: 10%; pest or weed control at 62.5 g/ha [10]: 20%; pest or weed control at 250 g/ha [10]: 30%; pest or weed control at 15.625 g/ha [11]: 10%; pest or weed control at 62.5 g/ha [11]: 30%; pest or weed control at 250 g/ha [11]: 30%; pest or weed control at 15.625 g/ha [12]: 0%; pest or weed control at 62.5 g/ha [12]: 0%; pest or weed control at 250 g/ha [12]: 0% |
